Counter-ions that a name gives are not always drawn.
Legend:
[1] = Phase solubility of budesonide in the presence of SAE-CD and azelastine hydrochloride (Example 19); assay type: physicochemical; conditions: SBE-β-CD or SBE-γ-CD solutions, pH 4.5 citrate buffer
Excerpt: The equilibrium binding constant of the corticosteroid can change when a second active agent is present in a composition of the invention. Since azelastine hydrochloride (AZ-HCl) has an approximately 10-fold higher binding constant for SBE-β-CD than does budesonide (BUD), the amount of SBE-β-CD present in an aqueous composition of the three needs to be sufficient to solubilize both drugs. Example 19 details a procedure for determination of the phase solubility of budesonide in the presence of varying amounts of azelastine. The results are depicted in FIGS. 11A (for SBE-β-CD) and 11B (for SBE-β-CD and SBE-γ-CD). […] FIG. 11B is a chart of the phase solubility of BUD as a function of SBE-β-CD or SBE-γ-CD concentration in solution using various different concentrations of AZ-HCl (1.00-2.75 mg.mL). […] Thus, increasing the amount of AZ-HCl in the solution decreases the overall solubility of BUD. […]
A stock solution of citrate buffer (3 mM, pH 4.5) was prepared. […] Any budesonide remaining suspended in the solutions was removed by filtration and the concentration of budesonide in each solution measured by HPLC as described herein. […]

[2] = Stability of budesonide R- and S-isomers with and without SBE7-β-CD (Example 13); assay type: physicochemical; conditions: pH 4 and 6, all temperatures (60° C., 80° C.)
Protocol: SAE-CD is also capable of stabilizing the isomers of budesonide to different extents. […] At a given temperature the ratio of rate constants with/without SBE7-β-CD was less at pH 6 than at pH 4. Although SBE7-β-CD stabilized both isomers, the S-isomer appears to be stabilized to an even greater extent than the R. At all temperatures and pHs tested, the ratio of rate constants with/without SBE7-β-CD was lower for the S isomer. The degree of stabilization affected by SBE7-β-CD at 60° C. is greater than at 80° C. An even greater degree of stabilization would be expected at 40° C. and/or room temperature (20-30° C.). […] The loss of budesonide was first order and […]. […] To achieve a concentration of budesonide in the buffers without SBE7-β-CD sufficient for accurate measurement, the budesonide was dissolved first in 100% ethyl alcohol. […] All solution preps and procedures involving budesonide were done in a darkened room under red light. […] The final budesonide concentration was about 50 μg/mL. […] Each solution was aliquoted into individual amber vials. They were then placed in ovens at 60° C. and 80° C. Sample vials were removed from the ovens and analyzed by HPLC at 0, 96, 164, and 288 hours. The HPLC assay conditions are summarized below. […]

[3] = assay type: binding
Excerpt: (§1) The equilibrium binding constant of the corticosteroid can change when a second active agent is present in a composition of the invention. Since azelastine hydrochloride (AZ-HCl) has an approximately 10-fold higher binding constant for SBE-β-CD than does budesonide (BUD), the amount of SBE-β-CD present in an aqueous composition of the three needs to be sufficient to solubilize both drugs. Example 19 details a procedure for determination of the phase solubility of budesonide in the presence of varying amounts of azelastine. The results are depicted in FIGS. 11A (for SBE-β-CD) and 11B (for SBE-β-CD and SBE-γ-CD). […] FIG. 11B is a chart of the phase solubility of BUD as a function of SBE-β-CD or SBE-γ-CD concentration in solution using various different concentrations of AZ-HCl (1.00-2.75 mg.mL). […] Thus, increasing the amount of AZ-HCl in the solution decreases the overall solubility of BUD. […] Therefore, it is advantageous to prepare solution compositions of these combinations using SBE-γ-CD due to the efficiency of interaction so as to require less of one SAExCD versus another different SAEyCD to solubilize similar amounts of actives in the presence of each other.

[4] = assay type: binding; remark: listed apart in the source
Protocol: A composition of the invention can comprise SAE-CD, corticosteroid, aqueous liquid carrier, and an antihistamine. In some embodiments, the composition contains SAE-CD, budesonide, water (or aqueous buffer) and azelastine. Example 14 details the preparation of such a composition. Other solutions of azelastine in buffer with varying amounts of SAE-CD, in the absence of budesonide, were prepared and scanned by UV Spectrometer. The change in absorption as a function of SAE-CD concentration was plotted and used to determine the equilibrium binding constant of azelastine with SAE-CD, according to the Benesi-Hildebrand equation. […] The binding constant for budesonide under similar conditions was determined to be about 1000; therefore, azelastine will compete with budesonide, or another corticosteroid, for binding to SAE-CD. Accordingly, the amount of SAE-CD present can be increased to permit complete dissolution of both drugs.
as §1

[5] = Equilibrium binding constants (K) of corticosteroids with CAPTISOL (Example 46); conditions: CAPTISOL (0.04 M); in M-1 (unit assumed)
Excerpt: (§2) The binding of a corticosteroid to the SAE-CD can be characterized by its equilibrium binding constant. The higher the binding constant, the more tightly the corticosteroid is bound to the SAE-CD.

[6] = Equilibrium binding constants (K) of corticosteroids with SBE6.1-γ-CD (Example 46); conditions: (SBE)6.1 γ (0.04 M); in M-1 (unit assumed)
Excerpt: as §2

[7] = Aqueous budesonide/olopatadine/CAPTISOL solution (Example 47); assay type: physicochemical
Protocol: An aqueous budesonide/olopatadine solution was prepared. […] Three mM citrate buffer was prepared at pH 4.5. […] Those citrate solutions were mixed to adjust the pH to 4.5. […] The solutions were transferred into 250 mL amber beakers with a magnetic stir disk. The solutions were mixed with a magnetic stir disk at 900 rpm at a temperature of 35° C. Approximately 34 milligrams of budesonide was suspended in each CAPTISOL solution. The samples were mixed with a magnetic stir disk at 900 rpm and 35° C. After 24 hours, the samples were filtered through 0.22 μm PVDF filter. The budesonide in the aliquots was assayed by an HPLC assay method and the concentrations were 340 μg/mL. […] Approximately 27 milligrams of olopatadine HCl was weighed into each of three 2 drams amber vials. The olopatadine HCl was suspended to 4 mL of budesonide/CAPTISOL solutions prepared in Part A. The samples were mixed on a roller mixer at RT. After 24 hours, the samples were filtered through 0.22 μm PVDF filter. The olopatadine and budesonide in the aliquots was assayed by HPLC assay methods, respectively. All olopatadine HCl concentrations were >6.6 mg/mL and all budesonide concentrations were >320 μg/mL. […] Approximately 27 milligrams of olopatadine HCl were weighed into each of three 2 drams amber vials. The olopatadine HCl was suspended to 4 mL of budesonide/CAPTISOL solutions prepared in Part A. The samples were mixed on a roller mixer at RT. After 1 hour, the pH of each sample was adjusted to 4.5 with 1N NaOH. Again, the samples were mixed on a roller mixer at RT. […] All samples were filtered through 0.22 μm PVDF filter. The olopatadine and budesonide in the aliquots were assayed by HPLC assay methods, respectively.

[8] = Fluticasone propionate concentration in SBE-Gamma ophthalmic solution, excess drug (Example 36 Method A); assay type: physicochemical; conditions: 10% w/v SBE-Gamma (D.S.=6.1), 0.01% TWEEN
Protocol: A citrate buffer solution at a pH of 4.5 was prepared by mixing various portions of 0.003M citric acid with 0.003M of trisodium citrate. A phosphate buffer solution at a pH of 6.0 was prepared by mixing various portions of 0.003M monobasic sodium phosphate with 0.003M of dibasic sodium phosphate. […] An excess of fluticasone propionate was added to the vials and equilibrated on a rocker for three days. The samples were then filtered using a PVDF 0.22 μm syringe filter. Aliquots of the solutions were placed into clear glass 2 mL serum vials with aluminum crimp caps and Daikyo Flurotec septums. […] The concentration of the pH 6.0 solution was 238 μg/mL.

[9] = Phase solubility of corticosteroids with cyclodextrins (Example 23)

CCCC1O[C@@H]2C[C@H]3[C@@H]4CCC5=CC(=O)C=C[C@]5(C)[C@H]4[C@@H](O)C[C@]3(C)[C@]2(C(=O)CO)O1 (stereo partly drawn) [Budesonide, (R,S)-11β, 16α, 17, 21-tetrahydroxypregna-1,4-diene-3, 20-dione cyclic 16, 17-acetal with butyraldehyde]
Overall solubility of BUD with increasing amount of AZ-HCl [1]: decreases | With/without CAPTISOL ratio of degradation rate constants [2]: less than 1 | Equilibrium complex stability constant with SBE-γ-CD [3]: 2000 M⁻¹ | Equilibrium complex stability constant with SBE-β-CD [4]: 1000 M⁻¹

CCC(=O)OCC(=O)[C@@]1(OC(=O)CC)[C@@H](C)C[C@H]2[C@@H]3CCC4=CC(=O)C=C[C@]4(C)[C@@]3(Cl)[C@@H](O)C[C@@]21C [Beclomethasone dipropionate, beclomethasone dipropionate]
Binding Constant- K [5]: 684 | Binding Constant- K [6]: 2862

C[C@@H]1C[C@H]2[C@@H]3CCC4=CC(=O)C=C[C@]4(C)[C@@]3(Cl)[C@@H](O)C[C@]2(C)[C@@]1(OC(=O)c1ccco1)C(=O)CCl [Mometasone Fuorate]
Binding Constant- K [5]: 201 | Binding Constant- K [6]: 551

CN(C)CC/C=C1/c2ccccc2COc2ccc(CC(=O)O)cc21 [olopatadine HCl]
Olopatadine HCl concentration ([7]; Part B, all CAPTISOL concentrations (5, 7.5, 10% w/v), pH ~3.8): > 6.6 mg/mL | Olopatadine HCl concentration ([7]; Part C, pH adjusted to 4.5, CAPTISOL 5% w/v (precipitation)): 6.5 mg/mL | Olopatadine HCl concentration ([7]; Part C, pH adjusted to 4.5, CAPTISOL 7.5 and 10% w/v): > 6.6 mg/mL

C[C@]12C=CC(=O)C=C1CC[C@@H]1[C@@H]2[C@@H](O)C[C@@]2(C)[C@H]1CC[C@]2(O)C(=O)CO [Prednisolone]
Binding Constant- K [5]: 1496 | Binding Constant- K [6]: 1653

C[C@]12CCC(=O)C=C1CC[C@@H]1[C@@H]2[C@@H](O)C[C@@]2(C)[C@H]1CC[C@]2(O)C(=O)CO [Hydrocortisone]
Binding Constant- K [5]: 1932 | Binding Constant- K [6]: 1430

CCC(=O)O[C@]1(C(=O)SCF)[C@H](C)C[C@H]2[C@@H]3C[C@H](F)C4=CC(=O)C=C[C@]4(C)[C@@]3(F)[C@@H](O)C[C@@]21C [Fluticasone propionate, fluticasone propionate]
Concentration in solution (excess drug, filtered) ([8]; citrate buffer pH 4.5): 232 µg/mL | Concentration in solution (excess drug, filtered) ([8]; phosphate buffer pH 6.0): 238 µg/mL | Binding Constant- K [5]: 322 | Binding Constant- K [6]: 3338

CN1CCCC(n2nc(Cc3ccc(Cl)cc3)c3ccccc3c2=O)CC1 (stereo not drawn) [azelastine HCL, azelastine hydrochloride]
Binding constant for SBE-β-CD relative to budesonide ([4]; AZ-HCl versus BUD): approximately 10 fold

CC1(C)O[C@@H]2C[C@H]3[C@@H]4C[C@H](F)C5=CC(=O)C=C[C@]5(C)[C@H]4[C@@H](O)C[C@]3(C)[C@]2(C(=O)CO)O1 [Flunisolide]
Binding Constant- K [5]: 590 | Binding Constant- K [6]: 1104

CC1(C)O[C@@H]2C[C@H]3[C@@H]4CCC5=CC(=O)C=C[C@]5(C)[C@@]4(F)[C@@H](O)C[C@]3(C)[C@]2(C(=O)CO)O1 [Triamcinolone acetonide, triamcinolone acetonide]
Approximate Molar Ratio at Saturated Solubility of Corticosteroid (SAE-CD:corticosteroid) ([9]; SAE-β-CD): 8.8 | Approximate Molar Ratio at Saturated Solubility of Corticosteroid (SAE-CD:corticosteroid) ([9]; SAE-γ-CD): 3.8

Source: patent US12370352B2, “Nasal and ophthalmic delivery of aqueous corticosteroid solutions” (CyDex Pharmaceuticals, Inc., priority 2007, dated 2025)
